Reference: a melting point compilation (Tetko et al.; mined from patent text by program, amines drawn as free bases though some values may be those of a salt)

| Compound | melting point |
| --- | --- |
| Cc1nc2c(cc1C(=O)NC(=N)N)CCCCC2O (stereo unspecified) | 207 to 210 °C |
| Oc1c(F)cc2c(c1F)CC(n1cc[nH]c1=S)CC2 (stereo unspecified) | 258 to 260 °C |
| Cc1nc(-c2ccc(NCC(=O)O)cc2)no1 | 178 to 181 °C |
| CCCCCCC1(c2ccccc2)CC(O)=CC(=O)O1 (stereo unspecified) | 119 to 120 °C |
| CCCCc1nc2cccc(C(=O)OC)c2n1Cc1ccc2nc(-c3ccccc3-c3nnn[nH]3)n(C)c(=O)c2c1 | 240 to 242 °C |
| COc1cc(C(=O)N2CCC(CCN3CCC(C(=O)c4nc5ccccc5n4Cc4ccc(C(=O)O)cc4)CC3)(c3ccccc3)C2)cc(OC)c1OC (stereo unspecified) | 173 to 190 °C |
| COc1cc2c(Nc3ccc(Sc4nccn4C)c(Cl)c3)c(C#N)cnc2cc1-c1csc(CN2CCN(C)CC2)c1 | 162 to 164 °C |
| O=C(NS(=O)(=O)c1ccc(Oc2cccc(C(F)(F)F)c2)cc1)c1ccc(C(=O)NCCO)nc1 | 167 to 168 °C |
| CNC(=O)Cc1c(C)n(-c2ccnc3cc(Cl)ccc23)c2ccc(OC)cc12 | 168 to 169 °C |
| CC(C)SC(F)(F)c1nnc(N)s1 | 119 to 121 °C |
| CCC(NC(=O)OC)c1ccc(Cl)c2nc3n(c12)CCCN3c1ccc(Cl)cc1Cl (stereo unspecified) | 201 to 203 °C |
| COc1cc(N)c(C(=O)c2ccncc2)cc1OC | 155 to 158 °C |
| CN1CCC(=O)C(=C2SC=CS2)C1=O | 148 to 153 °C |
| C=CCc1cc(C(=O)OCC)ccc1O | 67 to 70 °C |
| O=C(CCc1ccc(NC(=O)c2ccccc2)cc1)NO | 189 to 191 °C |
| O=C(O)c1ccccc1C(=O)NCCC(Oc1c(Br)cc(-c2ccc(-c3c(Cc4ccccc4)sc4ccccc34)cc2)cc1Br)C(=O)O (stereo unspecified) | 130 to 132 °C |
| O=C1NC(c2ccc(Cl)cc2)c2ccccc2C1CCN1CCOCC1 (stereo unspecified) | 239 to 245 °C |
| Cc1c(Br)cccc1N1Cc2cc(C(C)(C)C)sc2C1=O | 185 to 186 °C |
| COC(=O)CCCCNC(=NC(=O)OCc1ccccc1)NC(=O)OCc1ccccc1 | 36 to 39 °C |
| CCCN1CCn2c(=O)[nH]c3cccc(c32)C1C (stereo unspecified) | 124 °C |
| COc1cccc2c1OC(C(C)C)C2=O (stereo unspecified) | 46 to 47 °C |
| COc1ccc(C2=NN(Cc3ccccc3Cl)C(=O)[C@H]3CCCC[C@@H]23)cc1OC (relative stereo) | 101 to 104 °C |
| COc1ccc2cc([C@H](C)C(=O)OCC(=O)N3CCC(CCO[N+](=O)[O-])CC3)ccc2c1 | 83 to 85 °C |
| Cc1oc(-c2cccc(-c3ccccc3)c2)nc1CCOc1cccc(OC(C)(C)C(=O)O)c1 | 67 to 71 °C |

| Compound | melting point |
| --- | --- |
| NC(=S)Cc1cccc(Oc2ccccc2)c1O | 70 °C |
| COC(=O)C12COc3cc(C(F)(F)F)ccc3C1=NN(C(=O)Nc1ccc(C(F)(F)F)cn1)C2 (stereo unspecified) | 194 to 195 °C |
| [N-]=[N+]=N[C@@H]1CN2C(=O)N(c3cc(Cl)cc(Cl)c3)C(=O)[C@]2(Cc2ccc(Br)cc2)C1 | 58.9 °C |
| CCCCc1nc(O)cc(COC)n1 | 96 to 98 °C |
| CCNC(=S)NS(=O)(=O)c1cc(CCNC(=O)c2cc(Cl)ccc2OC)ccc1-c1ccccc1 | 168 to 170 °C |
| COC(=O)C=C1NCCOC1=O | 76 to 79 °C |
| O=C(O)CCCN(C(=O)c1ccccc1O)C(c1ccccc1)c1ccccc1 | 162 to 163 °C |
| COC(=O)c1cccc2c1c(C(C[N+](=O)[O-])C[N+](=O)[O-])cn2C | 142 to 145 °C |
| N#CSc1ccc(O)cc1Br | 91 to 92 °C |
| OCc1cccn2cc(C(F)(F)F)nc12 | 118 to 120 °C |
| CCCN1C(=O)C(NC(=O)Nc2cccc(C)c2)N=C(N(C)C2CCCCC2)c2ccccc21 (single isomer, unassigned; (+)) | 126 to 127 °C |
| COc1ccc(Cl)cc1-n1cc[nH]c1=O | 133 to 134 °C |
| CCOC(=O)c1cc2c(cn1)[nH]c1ccc([N+](=O)[O-])cc12 | 320 to 325 °C |
| COC(=O)CCCCC(=O)Nc1ccc(C(=O)NN=C2C(=O)Nc3ccc(I)cc32)cc1 | 277 °C |
| Cc1ccc(S(=O)(=O)OCCCCCCCCCOc2cccc(C(N)=O)c2)cc1 | 78 to 80 °C |
| COC(=O)C(=O)c1cc2cc(C#N)ccc2o1 | 196 to 199 °C |
| COC(=O)c1nc(CI)n(-c2ccc(Cl)cc2C(=O)c2ccccc2)n1 | 139 to 142 °C |
| O=c1c(Cl)c2sc3ccccc3nc-2c2ccccc12 | 230 to 231 °C |
| O=C1c2cc3cc(O)ccc3n2CC1CC1CCN(Cc2ccccc2)CC1 (stereo unspecified) | 186 to 188 °C |
| CC1=NN=C(c2ccc([N+](=O)[O-])cc2)c2cc3c(cc2C1)OCCOC3 | 204 to 206 °C |
| Cc1cc(OS(=O)(=O)c2c(F)cccc2F)cc2c(C3CCN(C)CC3)cn(C)c12 | 139 °C |
| C=CCNC(=O)C1C=C(O)c2cc(Cl)ccc2O1 (stereo unspecified) | 129 to 130 °C |
| CCC(=O)N(Cc1cccc2c1S(=O)(=O)N=C2C1=C(O)C(C(C)(C)C)N(Cc2ccc(F)c(C)c2)C1=O)S(C)(=O)=O (stereo unspecified) | 98 to 99.8 °C |
| CCN(C(=O)CC(OC)(C(F)(F)F)C(F)(F)F)c1cn(-c2cccnc2)nc1C | 83 to 86 °C |

| Compound | melting point |
| --- | --- |
| CC(=O)C1=CCC2C3CCC4CC5OC5CC4(C)C3C(=O)CC12C (stereo unspecified) | 154 to 156 °C |
| Cn1nc(O)cc1C(F)(F)C(F)(F)F | 119 to 124 °C |
| CCOC(=O)c1ccccc1NC(=O)CN1C(=O)c2ccccc2C1=O | 187 °C |
| O=C(O)c1c(F)c(F)cc([N+](=O)[O-])c1F | 98 to 99 °C |
| Nc1cnc2cc(Cl)ccc2c1Nc1ccc(F)cc1 | 198 to 200 °C |
| CCOC(=O)C1=C(c2ccccc2)N(c2ccccc2)C(=O)C1C(=O)c1ccccc1 (stereo unspecified) | 137 to 139 °C |
| CCCCc1nc2c(N)nc3ccccc3c2n1CCOCCON=C(C)C | 116 to 118 °C |
| CS(=O)(=O)NC1CCN(c2nc(N)nc(-c3cc(Cl)ccc3Cl)n2)C1 (stereo unspecified) | 102 to 107 °C |
| O=C(O)c1cccc(Oc2ccc(Br)cc2)c1 | 171 to 173 °C |
| C#Cc1ncn2c(C(F)F)cc(-c3ccc(C(F)(F)F)cc3)nc12 | 135 °C |
| COC(=O)c1c(C(F)F)nc(C(F)(F)F)c(C(C#N)=C2OCCO2)c1CC(C)C | 121 to 122 °C |
| COc1cc(F)ccc1-c1ccc(S(=O)(=O)N2c3ccccc3CC2C(=O)O)cc1 (stereo unspecified) | 93 to 100 °C |
| CCCCCCCC[C@H](C(=S)Nc1c(SC)ccc2ncccc12)c1ccccc1 | 126 to 128 °C |
| S=C(NCc1cccnc1)NC(=Nc1cccc2ccccc12)c1ccccc1 | 153 to 154 °C |
| CCOC(=O)c1[nH]c2c(O)cccc2c1C | 187 to 190 °C |
| Cc1c(C)c2c(c(Cl)c1C=O)OCC2 | 129 °C |
| CCCSc1nc(NC2CC2c2cccc(N)c2)c2nnn(C3CC(O)C(O)C3O)c2n1 (stereo unspecified) | 105 to 107 °C |
| COC(=O)C(CCCCNC(=O)c1ccc(N)cc1)n1c2ccccc2c2ccccc21 (stereo unspecified) | 90 to 91 °C |
| O=P(c1ccccc1)(c1ccccc1)c1cc(P(=O)(c2ccccc2)c2ccccc2)ncn1 | 213 to 215 °C |
| CCC(CC)Nc1cc(C)nc(Sc2c(C)cc(C)cc2C)c1C | 108 to 110 °C |
| O=C(Nc1ccccc1S(=O)(=O)N1CCCCC1)N[C@@H](Cc1ccc(Oc2nccc3ccncc23)cc1)C(=O)O | 159 °C |
| O=C(O)C=CC(=O)c1cccc([N+](=O)[O-])c1 | 199 to 201 °C |
| N=C(Nc1cccc(NC(=O)CNC(=O)OCc2ccccc2)c1)N1CCCC1 | 81 to 82 °C |
| COc1cc(-c2csc(-n3c(C)ccc3C)n2)c(OC)cc1C | 92 to 93 °C |

| Compound | melting point |
| --- | --- |
| Cc1ccc(C2c3c(C)cc(C)c(C)c3OC2(C)C)cc1 (stereo unspecified) | 117 to 118 °C |
| O=C1NC(=O)c2c(Sc3ccc([N+](=O)[O-])cc3)c(Sc3ccc([N+](=O)[O-])cc3)c(Sc3ccc([N+](=O)[O-])cc3)c(Sc3ccc([N+](=O)[O-])cc3)c21 | 297 to 301 °C |
| Cc1c(C)c2ccc(OCCCN3CCN(Cc4ccc(Cl)cc4)CC3)cc2[nH]c1=O | 143 to 144 °C |
| CC(NC(Nc1ccc2c(c1)OCO2)=C(C#N)S(=O)(=O)c1ccc(Cl)cc1)C(C)(C)C (stereo unspecified) | 160 to 162 °C |
| N=C(NO)c1cccc2c1nc(-c1c(F)cccc1F)n2Cc1c(F)cccc1F | 214 to 216 °C |
| CC(c1oc2ccccc2c(=O)c1-c1cccc(F)c1)n1nc(-c2cnc(N)nc2)c2c(N)ncnc21 (stereo unspecified) | 264 to 268 °C |
| CCCCC(CC)C(=O)NC(=S)Nc1nc(-c2ccc3c(c2)CCCC3)cs1 (stereo unspecified) | 178 to 179 °C |
| O=C(O)CCc1oc(Sc2ccccc2)nc1-c1ccc(Cl)cc1 | 156 to 157 °C |
| O=C(O)C1(O)CCCN(Cc2ccccc2)C1 (stereo unspecified) | 104 °C |
| CCNc1nc(C=O)cs1 | 84 to 85 °C |
| O=C1CCc2ccc(NC(=O)c3cc4cccnc4n3Cc3cccc(F)c3)cc2N1 | 280 to 282 °C |
| CO[C@@H]1CN(CCCn2nc(Cl)ccc2=O)CC[C@@H]1NC(=O)c1cc(Cl)c(N)c2c1OCCC2 (relative stereo) | 150 °C |
| CCC1CC(=O)N(Cc2ccc(N)cc2)N=C1c1ccc(OC)c(OC2CCCC2)c1 (stereo unspecified) | 109 °C |
| Cc1c(-c2ccccc2)oc2c(C(=O)N(C)CCO)cccc2c1=O | 128 to 130 °C |
| C=CCOC(=O)c1cccc(NC(=O)NCC(=O)N(CC(=O)OC(C)(C)C)c2ccccc2C(=O)c2ccccc2)c1 | 105 to 107 °C |
| Cc1cc(Oc2ccc(Oc3ccc(N)c(C)c3)cc2)ccc1N | 150 to 151 °C |
| O=C(OCc1ccccc1)c1cc2ccccc2[nH]1 | 136 °C |
| O=C1NCC(Cc2ccccc2Oc2ccccc2)O1 (stereo unspecified) | 100 to 101 °C |
| COc1ccc(-c2cc(=O)n(CCCOc3ccccc3)nc2-c2ccc(OC)cc2)cc1 | 110 to 111 °C |
| Cc1ccn2nc(S(=O)(=O)Nc3c(Cl)cccc3Cl)nc2c1 | 232 to 234 °C |
| CN(C(=O)Nc1cccc(C(F)(F)F)c1)S(C)(=O)=O | 72 °C |
| CCc1cc2c(o1)S(=O)(=O)NC2=O | 133 °C |
| Cc1cccc2[nH]c(=O)n(CCCN3CC=C(c4ccc(Cl)cc4)CC3)c(=O)c12 | 175 to 178 °C |
| CC(=NOCc1ccc2nonc2c1)c1ccc(O)c(F)c1 | 125 to 126 °C |
